These results are taken from US20210062146A1, “OPTIMIZED IN VITRO CELLULAR SYSTEM FOR BBB PERMEABILITY LINKED NEUROACTIVITY SCREENING” (priority 2019, published 2021).

The test system of series [1] is direct contact triculture (astrocytes, pericytes, HBEC-5i). Conditions: optimized triculture; radiolabeled marker, 0.25 μCi/mL in HBSS.
For series [2] the following is noted: human.
Series [3] can be described thus: in vitro. The conditions noted are these: human.
The test system of series [4] is direct contact triculture. Description: Triculture cell viability assay (MTT). In kind it is cell-based, human. The conditions noted are these: following 3 hours of permeation; no significant change vs control (p>0.05).
The subject of series [5] is NVU model (direct contact triculture with SH-SY5Y neurons). The conditions noted are these: for flux: human, 3 h, 50 μM.
Series [6] can be described thus: in vitro. Conditions: human. This is another data set of the same source.
Series [7] can be described thus: in vitro. Conditions: human. The source holds these as a separate data set.
Series [8] relates to NVU model (direct contact triculture with SH-SY5Y neurons). Briefly: Permeability across optimized NVU model (triculture with SH-SY5Y neurons in basolateral chamber).
A further series relates to SH-SY5Y neurons. Briefly: BBB permeability linked neuroactivity (Neurite Outgrowth Staining Kit). The conditions noted are these: 50 μM initial apical concentration, 3 hour permeation, n=4.

Read-outs that look alike come from different tables or passages of the source.

inulin: the Papp in [1] is recorded as 1.55×10^−5±0.01 cm/sec.

Take `COc1cc2c(c(OC)c1OC)-c1ccc(OC)c(=O)cc1[C@@H](NC(C)=O)CC2` [colchicine]: in series [2], the Papp A→B (usually how fast a substance crosses the layer from the apical side) at 150 min, 25 μM turned out to be 18.7 ×10⁻⁶ cm/s.

In the series “in vitro [3]”, `N[C@@H](Cc1c[nH]cn1)C(=O)O` [L-histidine] displayed an apical-to-basolateral permeability (Papp A→B) at 90 min, 0.25 μCi/mL of 52.6 ×10⁻⁶ cm/s.

Take `NC(=O)N1c2ccccc2C=Cc2ccccc21` [carbamazepine]: in [4], the “viability of the triculture (MTT), percent of the control” value (“viability … percent of the control” for short) turned out to be 103±5%. Moreover, in [5], the Papp amounted to 25.37±2.80×0^−6 cm/sec and the flux is 310±9 pg/cm^2·sec. The compound also had a Papp A→B at 150 min, 25 μM in the series “in vitro [3]” of 27.7 ×10⁻⁶ cm/s. Moreover, the viability – broadly, a read-out of living cells in per cent, often relative to untreated cells – at 3 h, 50 μM in the series “in vitro [6]” was 96 ± 18%.

`COc1ccc2[nH]cc(CCNC(C)=O)c2c1` [melatonin] had an apical-to-basolateral permeability (Papp A→B) at 180 min in the series “in vitro [7]” of 18.3 ×10⁻⁶ cm/s.

Take `CS(=O)(=O)CCNCc1ccc(-c2ccc3ncnc(Nc4ccc(OCc5cccc(F)c5)c(Cl)c4)c3c2)o1` [Lapatinib]: the “detection in the receiver chamber after 3 hours” value in series [8] is given as “undetectable”.

Consider `CN1CCN(C2=Nc3cc(Cl)ccc3Nc3ccccc32)CC1` [clozapine], for which the “viability … percent of the control” value in series [4] is 99±4%. In [5], the “change in permeation rate across the NVU model in comparison to the optimized triculture alone” value was “significant increase” and the flux was 372±19 pg/cm^2·sec. The compound further returned a Papp A→B at 150 min, 25 μM in the series “in vitro [3]” of 8.15 ×10⁻⁶ cm/s. Besides, the apical-to-basolateral permeability (Papp A→B) at 180 min in “in vitro [7]” turned out to be 11.4 ×10⁻⁶ cm/s. Besides, the viability at 3 h, 50 μM in “in vitro [6]” is 143 ± 20%. The “neurite outgrowth, percent of control NVU SH-SY5Y cells with vehicle” value in the series on SH-SY5Y neurons is listed as 111±12%.

Take `Cn1c(=O)c2c(ncn2C)n(C)c1=O` [caffeine]: in series [4], the “viability … percent of the control” value was 104±25%. In series [5], this compound registered a flux of 269±14 pg/cm^2·sec. For the same compound, in the series “in vitro [3]”, the Papp A→B at 150 min, 25 μM was 28.9 ×10⁻⁶ cm/s. This compound also displayed a Papp A→B at 180 min in “in vitro [7]” of 30.7 ×10⁻⁶ cm/s. Also, the viability at 3 h, 50 μM in “in vitro [6]” stood at 159 ± 34%. The “neurite outgrowth, percent of control NVU SH-SY5Y cells with vehicle” value with SH-SY5Y neurons stood at 122±26%.

`OC[C@@H](O)[C@@H](O)[C@H](O)[C@H](O)CO` [mannitol]: in “in vitro [3]”, the Papp A→B at 90 min, 0.25 μCi/mL is 19.9 ×10⁻⁶ cm/s.

As to PEG-4000, the Papp in [1] is 0.78×10^−5±0.00 cm/sec.

Take `COc1cc2nc(N3CCN(C(=O)c4ccco4)CC3)nc(N)c2cc1OC` [prazosin]: the “viability … percent of the control” value in [4] was determined as 82±6%. Moreover, in series [5], the “change in permeation rate across the NVU model in comparison to the optimized triculture alone” value is “significant decreases” and the flux was determined as 166±14 pg/cm^2·sec. In “in vitro [3]”, the Papp A→B at 150 min, 25 μM was 6.16 ×10⁻⁶ cm/s. Moreover, the Papp A→B at 180 min in “in vitro [7]” came out at 3.9 ×10⁻⁶ cm/s.
